# Biological target: TRKA (Homo sapiens (Human), UniProt P04629)
# Assay: Isolated TRK enzyme assay (HTRF KinEASE-TK), PV3144 TrkA enzyme assay
# Assay type: biochemical
# Conditions: arithmetic mean where more than one reading
# Method in brief: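 His-tagged TrkA cytoplasmic domain preactivated with ATP 20 min, then with compound 20 min at room temperature before 1 µM final biotin-TK substrate; HTRF 665/620 nm read.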
# TRKA, sequence (P04629 441-796): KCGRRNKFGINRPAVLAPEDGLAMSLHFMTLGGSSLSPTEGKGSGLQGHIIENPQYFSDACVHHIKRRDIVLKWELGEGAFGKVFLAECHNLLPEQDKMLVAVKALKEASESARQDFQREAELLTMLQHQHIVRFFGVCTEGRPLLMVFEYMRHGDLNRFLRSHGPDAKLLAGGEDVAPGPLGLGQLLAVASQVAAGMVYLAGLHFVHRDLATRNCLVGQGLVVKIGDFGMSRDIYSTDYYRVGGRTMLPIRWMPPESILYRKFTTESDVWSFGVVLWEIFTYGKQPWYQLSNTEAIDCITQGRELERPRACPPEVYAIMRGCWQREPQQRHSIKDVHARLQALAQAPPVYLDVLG
row,Compound,IC50
1,"CC(C)n1cc(C(=O)c2cc(NC(=O)Cn3cc(C(F)(F)F)nn3)ccn2)c2cncc(F)c21 [Example 83, N-(2-{[7-fluoro-1-(propan-2-yl)-1H-pyrrolo[3,2-c]pyridin-3-yl]carbonyl}pyridin-4-yl)-2[4-(trifluoromethyl)-1H-1,2,3-triazol-1-yl]acetamide]",0.344 µM
2,"N-(2-{[1-(1-hydroxypropan-2-yl)-1H-pyrrolo[3,2-c]pyridin-3-yl]carbonyl}pyridin-4-yl)-2-[4-(trifluoromethyl)phenyl]acetamide [Example 84]",0.141 µM
3,"CC(C)(CO)n1cc(C(=O)c2cncc(NC(=O)Cc3ccc(C(F)(F)F)cc3)c2)c2cnccc21 [Example 33, N-(5-{[1-(1-hydroxy-2-methylpropan-2-yl)-1H-pyrrolo[3,2-c]pyridin-3-yl]carbonyl}pyridin-3-yl)-2-[4-(trifluoromethyl)phenyl]acetamide]",0.00311 µM
4,"CC(C)(CO)n1cc(C(=O)c2cncc(NC(=O)Cc3ccc(F)cn3)c2)c2cncc(F)c21 [Example 93, N-(5-{[7-fluoro-1-(1-hydroxy-2-methylpropan-2-yl)-1H-pyrrolo[3,2-c]pyridin-3-yl]carbonyl}pyridin-3-yl)-2-(5-fluoropyridin-2-yl)acetamide]",0.0387 µM
5,"CC(C)n1cc(C(=O)c2cc(NC(=O)Cn3cc(C(F)(F)F)nn3)ccn2)c2cnccc21 [Example 53, N-(2-{[1-(propan-2-yl)-1H-pyrrolo[3,2-c]pyridin-3-yl]carbonyl}pyridin-4-yl)-2-[4-(trifluoromethyl)-1H-1,2,3-triazol-1-yl]acetamide]",0.11 µM
6,"CC(C)(CO)n1cc(C(=O)c2cncc(NC(=O)Cc3ccc(Cl)cn3)c2)c2cncc(F)c21 [Example 3, 2-(5-Chloro-pyridin-2-yl)-N-{5-[7-fluoro-1-(2-hydroxy-1,1-dimethyl-ethyl)-1H-pyrrolo[3,2-c]pyridine-3-carbonyl]-pyridin-3-yl}-acetamide]",0.00785 µM
7,"CC(CO)n1cc(C(=O)c2cc(NC(=O)Cc3ccc(C(F)(F)F)cc3)ccn2)c2cnccc21 (centres unmarked) [Example 230, N-(2-{[1-(1-hydroxypropan-2-yl)-1H-pyrrolo[3,2-c]pyridin-3-yl]carbonyl}pyridin-4-yl)-2-[4-(trifluoromethyl)phenyl]acetamide]",0.0181 µM
8,"CC(C)n1cc(C(=O)c2cncc(NC(=O)Cc3nc(C4CC4)oc3C3CC3)c2)c2cnccc21 [Example 20, 2-(2,5-dicyclopropyl-1,3-oxazol-4-yl)-N-(5-{[1-(propan-2-yl)-1H-pyrrolo[3,2-c]pyridin-3-yl]carbonyl}pyridin-3-yl)acetamide]",0.0317 µM
9,"Cc1cc(C(F)(F)F)nn1CC(=O)Nc1cncc(C(=O)c2cn(C(C)C)c3c(F)cncc23)c1 [Example 32, N-(5-{[7-fluoro-1-(propan-2-yl)-1H-pyrrolo[3,2-c]pyridin-3-yl]carbonyl}pyridin-3-yl)-2-[5-methyl-3-(trifluoromethyl)-1H-pyrazol-1-yl]acetamide]",0.0114 µM
10,"CC(C)n1cc(C(=O)c2cncc(NC(=O)Cn3cc(C4CC4)cn3)c2)c2cncc(F)c21 [Example 91, 2-(4-cyclopropyl-1H-pyrazol-1-yl)-N-(5-{[7-fluoro-1-(propan-2-yl)-1H-pyrrolo[3,2-c]pyridin-3-yl]carbonyl}pyridin-3-yl)acetamide]",0.015 µM
11,"CC(C)n1cc(C(=O)c2cncc(NC(=O)Cc3nccn3C)c2)c2cnccc21 [Example 46, 2-(1-methyl-1H-imidazol-2-yl)-N-(5-{[1-(propan-2-yl)-1H-pyrrolo[3,2-c]pyridin-3-yl]carbonyl}pyridin-3-yl)acetamide]",3.08 µM
12,"CC(C)n1cc(C(=O)c2cc(NC(=O)Cn3ccc(C4CC4)n3)ccn2)c2cnccc21 [Example 29, 2-(3-cyclopropyl-1H-pyrazol-1-yl)-N-(2-{[1-(propan-2-yl)-1H-pyrrolo[3,2-c]pyridin-3-yl]carbonyl}pyridin-4-yl)acetamide]",0.106 µM
13,"CC(C)(CO)n1cc(C(=O)c2cncc(NC(=O)Cn3cc(C(F)(F)F)nn3)c2)c2cnccc21 [Example 13, N-(5-{[1-(1-hydroxy-2-methylpropan-2-yl)-1H-pyrrolo[3,2-c]pyridin-3-yl]carbonyl}pyridin-3-yl)-2-[4-(trifluoromethyl)-1H-1,2,3-triazol-1-yl]acetamide]",0.00986 µM
14,"CC(C)n1cc(C(=O)c2cncc(NC(=O)Cn3ccc(C(F)(F)F)n3)c2)c2cnccc21 [Example 21, N-(5-{[1-(propan-2-yl)-1H-pyrrolo[3,2-c]pyridin-3-yl]carbonyl}pyridin-3-yl)-2-[3-(trifluoromethyl)-1H-pyrazol-1-yl]acetamide]",0.0271 µM
15,"CC(C)(CO)n1cc(C(=O)c2cncc(NC(=O)Cn3ccc(C(F)(F)F)n3)c2)c2cncc(F)c21 [Example 95, N-(5-{[7-fluoro-1-(1-hydroxy-2-methylpropan-2-yl)-1H-pyrrolo[3,2-c]pyridin-3-yl]carbonyl}pyridin-3-yl)-2-[3-(trifluoromethyl)-1H-pyrazol-1-yl]acetamide]",0.00292 µM

# Further lines, results first:
row,IC50,Compound
1,0.505 µM,"Cc1cn(CC(=O)Nc2cncc(C(=O)c3cn(C(C)C)c4ccncc34)c2)nn1 [Example 132, 2-(4-methyl-1H-1,2,3-triazol-1-yl)-N-(5-{[1-(propan-2-yl)-1H-pyrrolo[3,2-c]pyridin-3-yl]carbonyl}pyridin-3-yl)acetamide]"
2,0.2 µM,"CC(CO)n1cc(C(=O)c2cc(NC(=O)Cc3cccc(C(F)(F)F)c3)ccn2)c2cnccc21 (single isomer, unassigned) [Example 229, N-(2-{[1-(1-hydroxypropan-2-yl)-1H-pyrrolo[3,2-c]pyridin-3-yl]carbonyl}pyridin-4-yl)-2-[3-(trifluoromethyl)phenyl]acetamide]"
3,7.45 µM,"CC(C)n1cc(C(=O)c2ccnc(NC(=O)Cn3ccnc3)c2)c2cnccc21 [Example 102, 2-(1H-imidazol-1-yl)-N-(4-{[1-(propan-2-yl)-1H-pyrrolo[3,2-c]pyridin-3-yl]carbonyl}pyridin-2-yl)acetamide]"
4,0.103 µM,"Cc1nc(CC(=O)Nc2cc(C(=O)c3cn(C(C)C)c4ccncc34)ccn2)cs1 [Example 161, 2-(2-methyl-1,3-thiazol-4-yl)-N-(4-{[1-(propan-2-yl)-1H-pyrrolo[3,2-c]pyridin-3-yl]carbonyl}pyridin-2-yl)acetamide]"
5,0.174 µM,"Cc1oc(C2CC2)nc1CC(=O)Nc1cc(C(=O)c2cn(C3COC3)c3ccncc23)ccn1 [Example 200, 2-(2-cyclopropyl-5-methyl-1,3-oxazol-4-yl)-N-(4-{[1-(oxetan-3-yl)-1H-pyrrolo[3,2-c]pyridin-3-yl]carbonyl}pyridin-2-yl)acetamide]"
6,0.163 µM,"Cc1nc(CC(=O)Nc2cc(C(=O)c3cn(C(C)C)c4ccncc34)ccn2)c(C)o1 [Example 179, 2-(2,5-dimethyl-1,3-oxazol-4-yl)-N-(4-{[1-(propan-2-yl)-1H-pyrrolo[3,2-c]pyridin-3-yl]carbonyl}pyridin-2-yl)acetamide]"
7,0.0113 µM,"CC(C)(CO)n1cc(C(=O)c2cc(NC(=O)Cc3cccc(C(F)(F)F)c3)ccn2)c2cnccc21 [Example 232, N-(2-{[1-(1-hydroxy-2-methylpropan-2-yl)-1H-pyrrolo[3,2-c]pyridin-3-yl]carbonyl}pyridin-4-yl)-2-[3-(trifluoromethyl)phenyl]acetamide]"
8,0.0871 µM,"Cc1ccn(CC(=O)Nc2cc(C(=O)c3cn(C(C)C)c4ccncc34)ccn2)n1 [Example 109, 2-(3-methyl-1H-pyrazol-1-yl)-N-(4-{[1-(propan-2-yl)-1H-pyrrolo[3,2-c]pyridin-3-yl]carbonyl}pyridin-2-yl)acetamide]"
9,1.22 µM,"CC(C)n1cc(C(=O)c2cncc(NC(=O)Cn3cccn3)c2)c2cnccc21 [Example 122, N-(5-{[1-(propan-2-yl)-1H-pyrrolo[3,2-c]pyridin-3-yl]carbonyl}pyridin-3-yl)-2(1H-pyrazol-1-yl)acetamide]"
10,0.525 µM,"O=C(Cc1coc(C2CC2)n1)Nc1cc(C(=O)c2cn(C3COC3)c3ccncc23)ccn1 [Example 197, 2-(2-cyclopropyl-1,3-oxazol-4-yl)-N-(4-{[1-(oxetan-3-yl)-1H-pyrrolo[3,2-c]pyridin-3-yl]carbonyl}pyridin-2-yl)acetamide]"
11,0.0152 µM,"CC(C)n1cc(C(=O)c2ccnc(NC(=O)Cc3ccc(Cl)cc3)c2)c2cnccc21 [Example 103, 2-(4-chlorophenyl)-N-(4-{[1-(propan-2-yl)-1H-pyrrolo[3,2-c]pyridin-3-yl]carbonyl}pyridin-2yl)acetamide]"
12,0.0165 µM,"CC(C)(CO)n1cc(C(=O)c2cc(NC(=O)Cn3ccc(C4CC4)n3)ccn2)c2cnccc21 [Example 234, 2-(3-cyclopropyl-1H-pyrazol-1-yl)-N-(2-{[1-(1-hydroxy-2-methylpropan-2-yl)-1H-pyrrolo[3,2-c]pyridin-3-yl]carbonyl}pyridin-4-yl)acetamide]"
13,0.0053 µM,"CC(C)n1cc(C(=O)c2ccnc(NC(=O)Cc3ccc(C(F)(F)F)cc3)c2)c2cnccc21 [Example 175, N-(4-{[1-(propan-2-yl)-1H-pyrrolo[3,2-c]pyridin-3-yl]carbonyl}pyridin-2-yl)-2-[4-(trifluoromethyl)phenyl]acetamide]"
14,0.227 µM,"O=C(Cc1ccc(F)cc1)Nc1cc(C(=O)c2cn(C3COC3)c3ccncc23)ccn1 [Example 204, 2-(4-fluorophenyl)-N-(4-{[1-(oxetan-3-yl)-1H-pyrrolo[3,2-c]pyridin-3-yl]carbonyl}pyridin-2-yl)acetamide]"
15,4.9 µM,"CC(C)n1cc(C(=O)c2cncc(NC(=O)Cc3ncccn3)c2)c2cnccc21 [Example 119, N-(5-{[1-(propan-2-yl)-1H-pyrrolo[3,2-c]pyridin-3-yl]carbonyl}pyridin-3-yl)-2-(pyrimidin-2-yl)acetamide]"
16,0.2 µM,"O=C(Cc1cccc(Cl)c1)Nc1cc(C(=O)c2cn(CCO)c3ccncc23)ccn1 [Example 149, 2-(3-chlorophenyl)-N-(4-{[1-(2-hydroxyethyl)-1H-pyrrolo[3,2-c]pyridin-3-yl]carbonyl}pyridin-2-yl)acetamide]"
17,0.0839 µM,"Cc1cc(C(F)(F)F)nn1CC(=O)Nc1cc(C(=O)c2cn(CCO)c3ccncc23)ccn1 [Example 153, N-(4-{[1-(2-hydroxyethyl)-1H-pyrrolo[3,2-c]pyridin-3-yl]carbonyl}pyridin-2-yl)-2-[5-methyl-3-(trifluoromethyl)-1H-pyrazol-1-yl]acetamide]"
